These results are taken from US20080096974A2, “Polyamine-Metal Chelator Conjugates” (University of Florida Research Foundation, Inc., priority 2003, published 2008).

Where a name gives a salt, the structure may show the parent alone. Read-outs that look alike come from different tables or passages of the source.

In series [1] the test system is Murine L1210 leukemia cells. Kind of series: L1210 cell growth inhibition (IC50). The class given is cell-based. On the procedure: Murine L1210 leukemia cells were maintained in logarithmic growth as a suspension culture in RPMI-1640 medium (Gibco, Grand Island, N.Y.) containing 10% fetal bovine serum (Gibco), 2% HEPES-MOPS buffer, 1 mM L-glutamine (Gibco), and 1 mM aminoguanidine at 37° C. in a water-jacketed 5% CO2 incubator.
Cells were grown in 25 cm^2 tissue culture flasks in a total volume of 10 mL. Cultures were treated during logarithmic growth (0.5−1.0×10^5 cells/mL) with the compounds of interest, reseeded, and incubated as described in Bergeron, R. J., Müller, R., Bussenius, J., McManis, J. S., Merriman, R. L., Smith, R. E., Yao, H., Weimar, W. R., “Synthesis and Evaluation of Hydroxylated Polyamine Analogues as Antiproliferatives,” J. Med. Chem 43: 224-235 (2000). Cell counting and calculation of percent of control growth were also carried out as described in Bergeron, et al. The IC50 is defined as the concentration of compound necessary to reduce cell growth to 50% of control growth after defined intervals of exposure.

The test system of another series is polyamine transporter. Briefly: Competition with [3H]SPD for uptake into L1210 cells (polyamine transporter, Ki). The class given is cell-based, murine. To be noted: for Ki: L1210 cell suspensions, read-out: Ki, competition with [3H]SPD for the polyamine transport apparatus. An excerpt: The compounds of interest were studied for their ability to compete with [^3H]SPD for uptake into L1210 leukemia cell suspensions in vitro as described in Bergeron, R. J., Hawthorne, T. R., Vinson, J. R. T., Beck, D. L., Jr., Ingeno, M. J., “Role of the Methylene Backbone in the Antiproliferative Activity of Polyamine Analogues on L1210 Cells,” Cancer Res. 49: 2959-2964 (1989); Bergeron, R. J., McManis, J. S., Liu, C. Z., Feng, Y., Weimar, W. R., Luchetta, G. R., Wu, Q., Ortiz-Ocasio, J., Vinson, J. R. T., Kramer, D., Porter, C., “Antiproliferative Properties of Polyamine Analogues: A Structure-Activity Study,” J. Med. Chem. 37: 3464-3476 (1994); and Bergeron, R. J., Weimar, W. R., Wu, Q., Feng, Y., McManis, J. S., “Polyamine Analogue Regulation of NMDA MK-801 Binding: A Structure-Activity Study,” J. Med. Chem. 39: 5257-5266 (1996). Briefly, cell suspensions were incubated in 1 mL of culture medium containing radiolabeled SPD alone or radiolabeled SPD in the presence of graduated concentrations of a chelator or derivative. At the end of the incubation period, the tubes were centrifuged; the pellet was washed, digested, and neutralized prior to scintillation counting. Lineweaver-Burk plots indicated a simple competitive inhibition with respect to SPD.
The molecules of interest were studied for their ability to compete with [^3H]SPD for uptake into L1210 leukemia cell suspensions in vitro. Briefly, cell suspensions were incubated in 1 mL of culture medium containing radiolabeled SPD alone or radiolabeled SPD in the presence of graduated concentrations of chelator or conjugate. At the end of the incubation period, the tubes were centrifuged; the pellet was washed, digested, and neutralized prior to scintillation counting. Lineweaver-Burk plots indicated simple competitive inhibition with respect to SPD.

The subject of series [2] is chelator-promoted iron excretion. Kind of series: Iron clearance in the bile duct-cannulated rat. The class given is in vivo. To be noted: for iron-clearing efficiency: bile duct-cannulated rat. On the procedure: In this model, chelator-promoted iron excretion is measured in both the bile and the urine. Furthermore, because the method allows for collection of multiple bile samples, the kinetics of iron excretion can be determined. In each instance, the drugs were given subcutaneously. L1 and its SPM conjugate (4 and 5) were administered at a dose of 450 μmol/kg and (S)-4′-(HO)-DADFT (8) and its NSPD conjugates (9 and 10) were administered at a dose of 300 μmol/kg, i.e., all at equivalent iron-binding capacity.

In the next series the test system is L1210 leukemia cells. Briefly: Intracellular concentration / accumulation of analogue in L1210 cells (HPLC). To be noted: for intracellular concentration over extracellular treatment concentration: 0.2 μM extracellular.
Series [3] has as its system polyamine pools in L1210 cells. Kind of series: Effect on native polyamine pools in L1210 cells (HPLC). The class given is cell-based, murine. As to conditions: for activity at 0.2 µM: L1210.
Description: At the end of the treatment period, cell suspensions were sampled, washed three times in ice-cold, incomplete medium, and pelleted for extraction using 0.6 N perchloric acid, then freeze-fractured in liquid nitrogen/hot water three times. Each supernatant was frozen at −20° C. until analysis of polyamine content by HPLC. […] The buffer consisted of potassium phosphate (10 mM) and EDTA (2 mM), pH 2.9.
Series [4] deals with Ornithine decarboxylase (ODC). Kind of series: ODC activity in treated L1210 cells. It is filed as cell-based, murine. Here is the method: (§1) Ornithine decarboxylase (ODC) and Adenosylmethionine decarboxylase (AdoMet DC) activities were determined according to the procedures of Seely, J. E., Pegg, A. E., “Ornithine Decarboxylase (Mouse Kidney),” Methods Enzymol. 94: 158-161 (1983) and Pegg, A. E., Pösö, H., “S-Adenosylmethionine Decarboxylase (Rat Liver),” Methods Enzymol. 94: 234-239 (1983), respectively, on the basis of quantitation of ^14CO2 released from [^14C]carboxyl-labeled L-ornithine or S-adenosyl-L-methionine. Included in each assay were untreated L210 cells as negative controls as well as cells treated with DEHSPM, a drug having a known reproducible effect on each enzyme, as positive controls.

The test system of series [5] is Adenosylmethionine decarboxylase (AdoMet DC). Kind of series: AdoMetDC activity in treated L1210 cells. The class given is cell-based, murine. On the procedure:
as §1

Series [6] deals with Spermidine/spermine N^1-acetyl transferase (SSAT). Briefly: SSAT activity in treated L1210 cells. The class given is cell-based, murine. An excerpt:
Spermidine/spermine N^1-acetyl transferase (SSAT) activity was based on quantitation of [^14C]-N^1-acetylspermidine formed by acetylation of SPD with [^14C]-acetyl coenzyme A according to the method of Libby, P. R., Bergeron, R. J., Porter, C. W., “Structure-Function Correlations of Polyamine Analog-Induced Increases in Spermidine/Spermine Acetyltransferase Activity,” Biochem. Pharmacol. 38: 1435-1442 (1989). Cells treated with DENSPM were positive controls.

Where [7] appears, read: Mus musculus, 48 h exposure, read-out: IC50, 48 h.
[8] abbreviates: Mus musculus, 96 h exposure, read-out: IC50, 96 h.
Where [9] appears, read: rat, 300 μmol/kg subcutaneously.
The mark [10] stands for this setting: L1210 cells, treatment concentration 100 μM.
The mark [11] stands for this setting: rat, 450 μmol/kg subcutaneously.

Consider `C[C@]1(C(=O)O)CSC(c2ccc(OCCCCNCCCNCCCN)cc2O)=N1.Cl.Cl.Cl` [Compound 10, (S)-4,5-dihydro-2-[2-hydroxy-4-(12-amino-5,9-diazadodecyloxy)phenyl]-4-methyl-4-thiazolecarboxylic acid trihydrochloride], for which the IC50 in [1] (setting [7]) and in series [1] (setting [8]) was 40 µM each time. In addition, the Ki in the series on polyamine transporter worked out at 73 µM. In [2] (setting [9]), the “biliary ferrokinetics (in words)” value is reported as “protracted biliary iron clearance”. Further, the “drug species found in tissues of dosed animals” value in series [2] (rat, subcutaneous) was “contained largely free acid”. Besides, the intracellular level entry in the series with L1210 leukemia cells (extracellular 100 μM) was “about 70 μM”.

On to `Cc1c(O)c(=O)ccn1CCCNCCCCNCCCN` (as salt: hydrochloride) [Compound 3, 1-(12-Amino-4,9-diazadodecyl)-2-methyl-3-hydroxy-4(1H)-pyridinone Tetrahydrochloride], for which the melting point was in the range of 216 to 218 °C.

Turning to `CC(=O)NCCCNCCCCNCCCN` [AcSPM, N^1-Acetylspermine], in series [1] (setting [7]), the IC50 was over 100 µM. Also, in [1] (setting [8]), the IC50 was over 100 µM. The inhibition constant (Ki) in the series on polyamine transporter came to 10 µM. In [3] (setting [10]), the “putrescine, percent of control” value was “substantial effect”; the “spermidine, percent of control” value is recorded as “slight decrease”; the “spermine, percent of control” value is recorded as “increased”. In addition, in series [4], the “ODC activity, % of control” value is given as 25±11 % of control. Further, the “AdoMetDC activity, % of control” value in series [5] was 86±11 % of control. Moreover, the “SSAT activity, % of control” value in series [6] is recorded as 180±11 % of control. The “intracellular concentration (analogue accumulation)” value in the series on L1210 leukemia cells (treatment concentration 100 μM) turned out to be 1.62 mM.

In the case of `CCOC(=O)[C@@]1(C)CSC(c2ccc(OCCCCNCCCNCCCN)cc2O)=N1` [Compound 9], the IC50 in [1] (setting [7]) and in [1] (setting [8]) was 1.5 µM each time. Further, in the series on polyamine transporter, the Ki came to 5.7 µM. The iron-clearing efficiency in [2] (300 μmol/kg subcutaneously) turned out to be 13.6±3.3%. Further, the “biliary ferrokinetics (in words)” value in series [2] (setting [9]) is listed as “protracted biliary iron clearance”. The intracellular level with L1210 leukemia cells (extracellular 100 μM) was 947 ± 110 µM.

Consider `NCCCCNCCCNC(=O)c1ccc(C(=O)O)cc1` [Compound 7, N^1-terephthaloylspermidine], for which the Ki in the series with polyamine transporter turned out to be 27 µM. Also, in the series on polyamine transporter (L1210 cells), the “fold increase of Ki of the free acid over the corresponding ester” value was found to be 9 fold. Further, in the series with L1210 leukemia cells (extracellular 100 μM), the intracellular level was under 70 µM.

On to `CCNCCCNCCCCNCCCN` [MESPM, N^1-ethylspermine], for which, in the series with L1210 leukemia cells (treatment concentration 100 μM), the “intracellular concentration (analogue accumulation)” value was determined as 1.24 mM.

Regarding `COC(=O)c1ccc(C(=O)NCCCNCCCCN)cc1` [Compound 6, N^1-terephthaloylspermidine methyl ester], in the series on polyamine transporter, the inhibition constant Ki is 3.1 µM.

As to `FC(F)(F)CNCCCNCCCCNCCCNCC(F)(F)F` [FDESPM], in series [1] (exposure time not given, read-out: IC50), the IC50 is over 100 µM. Besides, the “competition for / uptake by the polyamine transporter (in words)” value with polyamine transporter (L1210 cells) is reported as “poor Ki”. Moreover, in the series with L1210 leukemia cells (extracellular 100 μM), the intracellular level is under 20 µM.

As for `C[C@]1(C(=O)O)CSC(c2ccc(O)cc2O)=N1` [Compound 8, 2-(2,4-dihydroxyphenyl)-4-(S)-methylthiazoline-4-carboxylic acid], the IC50 worked out at 19 µM in [1] (setting [7]) and 20 µM in series [1] (setting [8]). For the same compound, the iron-clearing efficiency in series [2] (300 μmol/kg subcutaneously) was determined as 1.1±0.6%. For the same compound, in the series with L1210 leukemia cells (extracellular 100 μM), the intracellular level was at most 50 µM.

As to `Cc1c(O)c(=O)ccn1C` [Compound L1, 1,2-Dimethyl-3-hydroxypyridin-4-one], in series [1] (setting [7]), the IC50 turned out to be 46 µM. In [1] (setting [8]), the half-inhibitory concentration (IC50) stood at 55 µM. Moreover, in [3] (L1210 cells, treatment 50 μM), the “putrescine, percent of control” value is recorded as “remained close to control levels” and the “spermidine, percent of control” value was “remained close to control levels”. In series [3] (Mus musculus, L1210 cells, treatment 50 μM, read-out: spermine, percent of control), the activity at 50 µM is 127%. In [4], the “ODC activity, % of control” value is 114±5 % of control. Also, in series [5], the “AdoMetDC activity, % of control” value is 120±4 % of control. Further, in [6], the “SSAT activity, % of control” value is given as 108±58 % of control. In [2] (450 μmol/kg subcutaneously), this compound returned an iron-clearing efficiency of 2.2±0.9%. Further, in series [2] (setting [11]), the “share of excreted iron in the bile” value is 74% and the “share of excreted iron in the urine” value is on record as 26%. In the series with L1210 leukemia cells (extracellular 50 μM), the intracellular level was 1 µM.

Turning to `CC(=O)N(O)CCCCCNC(=O)CCC(=O)N(O)CCCCCNC(=O)CCC(=O)N(O)CCCCCN` [DFO], the IC50 in series [1] (setting [7]) was found to be 7 µM; in series [1] (setting [8]), 6 µM.

Regarding `Cc1c(O)c(=O)ccn1CCCNCCCCNCCCN` [Compound 3, 1-(12-Amino-4,9-diazadodecyl)-2-methyl-3-hydroxy-4(1H)-pyridinone Tetrahydrochloride], the IC50 in series [1] (setting [7]) and in series [1] (setting [8]) was 0.2 µM in each case. In addition, the activity at 0.2 µM in [3] (Mus musculus, read-out: putrescine, percent of control) was determined as 33%; in series [3] (Mus musculus, read-out: spermidine, percent of control), 64%; in series [3] (Mus musculus, read-out: spermine, percent of control), 139%. For the same compound, the “ODC activity, % of control” value in series [4] is on record as 20±4 % of control. For the same compound, the “AdoMetDC activity, % of control” value in series [5] is 77±11 % of control. The “SSAT activity, % of control” value in series [6] was 275±6 % of control. This compound had an iron-clearing efficiency in series [2] (450 μmol/kg subcutaneously) of 1.8±0.9%. Besides, in series [2] (setting [11]), the “share of excreted iron in the bile” value is reported as 53%. The “share of excreted iron in the urine” value in series [2] (setting [11]) is recorded as 47%. Further, the “intracellular concentration relative to that attained by parent ligand L1” value with L1210 leukemia cells is “several hundred times higher”. Also, the “intracellular concentration over extracellular treatment concentration” value is “more than 1900 fold” in the series with L1210 leukemia cells and 1900 fold in the series with L1210 leukemia cells (listed as 1-(12-amino-4,9-diazadodecyl)-2-methyl-3-hydroxy-4-(1H)-pyridinone). In the series on L1210 leukemia cells (extracellular 0.2 μM), the intracellular level was found to be 390 µM. Besides, the “intracellular concentration (analogue accumulation)” value with L1210 leukemia cells (treatment concentration 0.2 μM) is given as 0.39 mM.

For orientation: IC50 means the concentration that gives 50% inhibition. A word on the Ki: it is a dissociation constant, usually derived from enzyme kinetics or from competition with a known ligand. One may read the melting point as the temperature, or range, at which the solid turns liquid.
